{"source": "patent US6136323A", "about": "“Bacterial plasmin receptors as fibrinolytic agents” (University of Florida Research Foundation, Inc., priority 1994, dated 2000)", "molecules": {"B1": {"name": "plasmin: Human plasmin generated from radiolabeled plasminogen by incubation with urokinase (protein, UniProt P00747 20-580; P00747 581-810, looked up)", "Plasmin heavy chain A": "EPLDDYVNTQGASLFSVTKKQLGAGSIEECAAKCEEDEEFTCRAFQYHSKEQQCVIMAENRKSSIIIRMRDVVLFEKKVYLSECKTGNGKNYRGTMSKTKNGITCQKWSSTSPHRPRFSPATHPSEGLEENYCRNPDNDPQGPWCYTTDPEKRYDYCDILECEEECMHCSGENYDGKISKTMSGLECQAWDSQSPHAHGYIPSKFPNKNLKKNYCRNPDRELRPWCFTTDPNKRWELCDIPRCTTPPPSSGPTYQCLKGTGENYRGNVAVTVSGHTCQHWSAQTPHTHNRTPENFPCKNLDENYCRNPDGKRAPWCHTTNSQVRWEYCKIPSCDSSPVSTEQLAPTAPPELTPVVQDCYHGDGQSYRGTSSTTTTGKKCQSWSSMTPHRHQKTPENYPNAGLTMNYCRNPDADKGPWCFTTDPSVRWEYCNLKKCSGTEASVVAPPPVVLLPDVETPSEEDCMFGNGKGYRGKRATTVTGTPCQDWAAQEPHRHSIFTPETNPRAGLEKNYCRNPDGDVGGPWCYTTNPRKLYDYCDVPQCAAPSFDCGKPQVEPKKCPGR", "Plasmin light chain B": "VVGGCVAHPHSWPWQVSLRTRFGMHFCGGTLISPEWVLTAAHCLEKSPRPSSYKVILGAHQEVNLEPHVQEIEVSRLFLEPTRKDIALLKLSSPAVITDKVIPACLPSPNYVVADRTECFITGWGETQGTFGAGLLKEAQLPVIENKVCNRYEFLNGRVQSTELCAGHLAGGTDSCQGDSGGPLVCFEKDKYILQGVTSWGLGCARPNKPGVYVRVSRFVTWIEGVMRNN", "modifications": "Plasmin radiolabeled", "notes": "Human plasmin generated from radiolabeled plasminogen by incubation with urokinase"}, "B2": {"name": "plasmin receptor: Mr ≈41,000 dalton plasmin binding protein extracted with mutanolysin from group A streptococcal strain 64/14 (protein)", "chain": "MVVKVGINGFGRIGRLAFRRIQNIEGVEVTRINDLTDPNMLAHLLKYDTTQGRFDGTVEVKEGGFEVNGNFIKVSAERDPENIDWATDGVEIVLEATGFFAKKEAAEKHLHANGAKKVVITAPGGNDVKTVVFNTNHDILDGTETVISGASCTTNCLAPMAKALHDAFGIQKGLMTTIHAYTGDQMILDGPHRGGDLRRARAGAANIVPNSTGAAKAIGLVIPELNGKLDGAAQRVPVPTGSVTELVVTLDKNVSVDEINSAMKAASNDSFGYTEDPIVSSDIVGVSYGSLFDATQTKVMEVDGSQLVKVVSWYDNEMSYTAQLVRTLEYFAKIAK"}}, "key": {"[1]": {"system": "group A streptococcus 64/14", "assay": "Effect of pH and ionic strength on binding of labeled plasmin(ogen) to bacteria", "description": "To assess the effect of pH on the bacterium: plasmin (ogen) interaction, 50 μl of labeled plasminogen of plasmin (approximately 2×10^4 cpm) were added to 1.0 ml of VBS containing 0.05% Tween-20 adjusted to the appropriate pH. After 15 min at room temperature, 50 μl of VBS containing approximately 10^7 bacteria (strain 64/14) were added and the mixture was incubated at 37 C for 15 min. The bacterial suspensions were centrifuged at 1000 g for 7 min to separate bacteria from unbound labeled proteins and the pellets were washed twice with 2 ml of VBS at the appropriate pH. The radioactivity associated with the bacterial pellet in duplicate experiments was measured using a Beckman 5500 autogamma counter.\nTo assess the effect of ionic strength on the bacterium:plasmin (ogen) interaction, similar studies were carried out in solutions containing different concentrations of NaCl with 0.05% Tween-20. The bacterial pellets were washed in the appropriate NaCl concentration to remove unbound labeled proteins."}, "[2]": {"target": "binding of plasmin to the group A streptococcus 64/14", "assay": "Inhibition of plasmin binding to bacteria by amino acids", "conditions": "pH 7.0, 37 C, 15 min, strain 64/14; read-out: concentration giving fifty percent inhibition of binding of plasmin to the bacteria", "description": "Labeled plasmin (100 μl containing approximately 2×10^4 cpm) was added to 200 μl VBS-gel containing varying concentrations of epsilon-aminocaproic acid (EACA), lysine, or arginine, and incubated at 37 C for 15 min. The pH of each solution was 7.0. One hundred μl of VBS-gel containing 10^7 bacteria (strain 64/14) were then added and the mixture was incubated at 37 C for 15 min. The bacterial suspensions were centrifuged at 1000 g for 7 min and washed twice with 2 ml of VBS-gel containing the same concentration of amino acid present during the incubation period. The percent inhibition of binding was calculated for duplicate experiments by comparison with binding in VBS-gel alone."}, "[3]": {"system": "plasmin prebound to the group A streptococcus", "assay": "Dissociation of prebound plasmin from bacteria by amino acids", "conditions": "compared with concentration inhibiting binding by 50%", "description": "The ability of EACA, lysine, or arginine to dissociate bound plasmin from the bacteria was examined in the following manner. Labeled plasmin was incubated with 10^7 bacteria in VBS-gel containing no amino acid at 37 C for 15 min. The bacteria were pelleted by centrifugation and washed twice with 2 ml on VBS-gel. After determining the radioactivity associated with the bacteria, the pellets were resuspended in solutions of VBS-gel containing varying concentrations of amino acid (pH 7.0) as described above. The mixtures were incubated at 37 C for 15 min and washed twice with VBS-gel containing the appropriate amino acid concentration. The radioactivity associated with the bacteria in duplicate experiments was again measured and the percentage dissociated was calculated."}, "[4]": {"system": "Mr ≈41,000 dalton plasmin binding protein of strain 64/14", "assay": "Western blot probed with 125I-human plasmin in presence or absence of EACA", "design": "species or system group A streptococcus", "conditions": "1.0 mM EACA", "description": "(§1) Gels intended for Western blotting were equilibrated in 25 mM Tris, 0.2 M glycine pH 8.0 containing 20% v/v methanol (electroblot buffer) for 25 minutes. Protein blotting, from SDS-PAGE gels, was performed using the `Trans-Blot SD Semi-Dry` electrophoretic transfer cell (Bio Rad, Richmond, Calif.). Blots were blocked as described for the dot-blot procedure, and probed for 3-4 hours at room temperature with radiolabeled human plasmin in either the presence or absence of 1.0 mM EACA, to identify functionally active protein bands. In studies of antigenic properties of these proteins, blots were probed with rabbit anti-plasmin receptor antibody or anti-group C streptokinase antibody by incubation with […] IgG per ml of probing solution (approximately a 1:3000 dilution of antisera) for three hours and probed with ^125 I-streptococcal protein G containing 3×10^4 cpm/ml. For probing with mouse monoclonal antibodies specific for epitopes on group C streptokinase, blots were probed with a 1:100 dilution of the monoclonal antibody stock solution for three hours, followed by probing with goat antibody specific for mouse IgG at 1.0 μg/ml, followed by probing with ^125 I-streptococcal protein G containing 3×10^4 cpm/ml. Blots were then washed with 0.01 M EDTA pH 7.3, containing 1.0 M NaCl, 0.25% gelatin, 0.15% Tween 20. […]"}, "[5]": {"system": "Mr 48,000 plasminogen activator protein from strain 64/14", "assay": "Western blot probed with 125I-human plasmin in presence or absence of EACA", "type": "binding, group A streptococcus", "conditions": "addition of EACA (1.0 mM)", "description": "as §1"}, "group C streptokinase": {"system": "group C streptokinase", "assay": "Western blot probed with 125I-human plasmin in presence or absence of EACA", "type": "binding, group C streptococci", "conditions": "addition of EACA (1.0 mM)", "description": "as §1"}, "[6]": {"system": "plasmin bound to strain 64/14", "assay": "Preparative elution of bound labeled plasmin from strain 64/14 with lysine", "type": "binding, group A streptococcus", "conditions": "20 mM lysine in VBS-gel, room temperature, 30 min", "description": "Plasmin which had been bound to and eluted from strain 64/14 by treatment with lysine was also examined in similar binding studies. Eluted plasmin was obtained by incubating 2 ml of stock 10% wet weight/volume bacterial suspension (strain 64/14) with approximately 20 μg of labeled plasmin at room temperature for 45 min. This suspension was centrifuged at 1000 g for 10 min and washed once with 10 ml of VBS-gel, and the radioactivity associated with the bacterial pellet was measured. The pellet was then resuspended in VBS-gel containing 20 mM lysine and incubated at room temperature for 30 min. The suspension was centrifuged and the supernatant recovered. Approximately 90% of the radioactivity originally associated with the bacterial pellet was dissociated by the lysine treatment. The dissociated plasmin in the supernatant was the subjected to gel filtration of a G-25 column to separate lysine from plasmin. Fractions containing plasmin were collected and stored at -20 C."}, "[7]": {"system": "group A streptococci strain 64/14", "assay": "Effect of Ca2+ and Mg2+ on binding of radiolabeled plasmin to bacteria", "design": "species or system group A streptococcus", "conditions": "VBS-gel with 0.00015 M Ca2+ and 0.001 M Mg2+ vs metal free VBS-gel with 0.15 M EDTA", "description": "Bindings of radiolabeled plasmin to group A streptococci strain 64/14 was studied in the following buffers: (1) VBS-gel containing 0.00015 M Ca^2+ and 0.001 M Mg^2+, or (2) metal free VBS-gel containing 0.15 M ethylenediaminetetraacetic acid (EDTA). In each case 400 μl of buffer was added to 100 μl of VBS-gel containing approximately 10^7 bacteria and 100 μl of VBS-gel containing 3×10^4 cpm of radiolabeled plasmin. After incubation at 37 C for 15 minutes, the mixtures were centrifuged at 1000 g for 7 min to separate bacteria from unbound radiolabel, the pellets were washed twice with 2 ml of the appropriate buffer, and radioactivity associated with the bacterial pellet in duplicate experiments was measured."}, "plasminogen": {"target": "plasminogen (Homo sapiens, UniProt P00747)", "sequence (P00747 20-810 limits assumed)": "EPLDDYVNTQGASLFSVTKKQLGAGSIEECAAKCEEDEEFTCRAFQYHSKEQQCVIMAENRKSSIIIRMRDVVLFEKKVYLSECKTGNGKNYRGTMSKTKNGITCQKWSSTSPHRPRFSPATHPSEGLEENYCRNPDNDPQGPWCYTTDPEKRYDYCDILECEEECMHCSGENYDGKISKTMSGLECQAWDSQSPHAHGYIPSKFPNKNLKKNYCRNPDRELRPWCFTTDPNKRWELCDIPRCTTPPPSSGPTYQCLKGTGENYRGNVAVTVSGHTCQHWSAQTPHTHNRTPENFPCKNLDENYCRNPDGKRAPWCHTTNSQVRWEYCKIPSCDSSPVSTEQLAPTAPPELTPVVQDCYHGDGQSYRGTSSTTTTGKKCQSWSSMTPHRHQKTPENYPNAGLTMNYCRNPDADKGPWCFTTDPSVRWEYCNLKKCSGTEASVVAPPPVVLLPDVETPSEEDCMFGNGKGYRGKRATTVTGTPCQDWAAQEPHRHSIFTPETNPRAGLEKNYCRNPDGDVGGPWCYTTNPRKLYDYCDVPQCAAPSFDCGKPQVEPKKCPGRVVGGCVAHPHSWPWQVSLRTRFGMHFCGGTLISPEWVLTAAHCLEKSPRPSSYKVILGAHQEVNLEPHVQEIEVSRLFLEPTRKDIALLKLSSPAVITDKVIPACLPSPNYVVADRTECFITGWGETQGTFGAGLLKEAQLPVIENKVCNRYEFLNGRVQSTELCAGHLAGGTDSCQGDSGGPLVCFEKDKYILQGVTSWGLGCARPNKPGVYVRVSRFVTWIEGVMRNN", "assay": "Plasminogen activator activity of separated proteins", "type": "biochemical"}, "human plasmin": {"target": "T1, human plasmin (Homo sapiens, UniProt P00747)", "T1 construct": "from tissue", "assay": "Western blot probed with 125I-labeled human plasmin (plasmin binding activity)", "conditions": "SDS-PAGE", "description": "PAGE and protein blotting. SDS-polyacrylamide gel electrophoresis (PAGE) was carried out with a 10% (wt/vol) polyacrylamide separating gel and a 4% (wt/vol) polyacrylamide stacking gel according to the method of Laemmli (Laemmli, U.K. [1970] Nature 227:680-685). Gels for Western blotting (immunoblotting) were equilibrated, and separated proteins were transferred by methods described previously (Broder et al. [1991], supra). For studies of plasmin binding, nitrocellulose membranes were blocked for 1 hour at room temperature in NET-gel buffer. The blots were then incubated for 2 hours at room temperature with ^125 I-human plasmin to identify plasmin-binding protein bands (Broder et al., supra). The blots were washed in NET-gel and subjected to autoradiography at -70 C.\nGels intended for Western blotting were equilibrated in 25 mM Tris, 0.2 M glycine pH 8.0 containing 20% v/v methanol (electroblot buffer) for 25 minutes. Protein blotting, from SDS-PAGE gels, was performed using the `Trans-Blot SD Semi-Dry` electrophoretic transfer cell (Bio Rad, Richmond, Calif.). Blots were blocked as described for the dot-blot procedure, and probed for 3-4 hours at room temperature with radiolabeled human plasmin in either the presence or absence of 1.0 mM EACA, to identify functionally active protein bands. […]"}}}
{"molecule": "plasminogen", "values": [{"measurement": "fraction bound to bacteria", "setting": "[1]; 0.1 to 0.4 M NaCl", "result": "less than 10%"}, {"measurement": "direct binding of offered counts to the bacteria", "setting": "[1]; entire pH range tested (pH 5-9)", "result": "less than 10%"}, {"measurement": "binding to the bacteria at low ionic strength", "setting": "[1]; ionic strength below 0.075 M NaCl", "result": "significant binding"}]}
{"molecule": "NCCCCCC(=O)O", "note": "[EACA, epsilon-aminocaproic acid]", "values": [{"measurement": "IC50", "setting": "[2]", "result": 150, "unit": "µM"}, {"measurement": "concentration of amino acid required to elute 50% of the bound plasmin", "setting": "[3]", "result": "approximately equivalent"}, {"measurement": "effect on binding of 125I-labeled human plasmin to the Mr ≈41,000 dalton protein in concentrated culture supernatant of strain 64/14", "setting": "[4]", "result": "inhibited"}, {"measurement": "effect on plasmin binding activity of Mr ≈41,000 dalton band in the mutanolysin extract of strain 64/14", "setting": "[4]", "result": "reduced significantly"}, {"measurement": "effect on binding of plasmin to the Mr 48,000 plasminogen activator protein from strain 64/14", "setting": "[5]", "result": "no effect"}, {"measurement": "effect on binding of plasmin to the reference group C streptokinase molecule", "setting": "group C streptokinase", "result": "no effect"}]}
{"molecule": "N=C(N)NCCC[C@H](N)C(=O)O", "note": "[arginine]", "values": [{"measurement": "IC50", "setting": "[2]", "result": 25000, "unit": "µM"}, {"measurement": "concentration of amino acid required to elute 50% of the bound plasmin", "setting": "[3]", "result": "approximately equivalent"}]}
{"molecule": "NCCCC[C@H](N)C(=O)O", "note": "[lysine]", "values": [{"measurement": "IC50", "setting": "[2]", "result": 2000, "unit": "µM"}, {"measurement": "concentration of amino acid required to elute 50% of the bound plasmin", "setting": "[3]", "result": "approximately equivalent"}, {"measurement": "radioactivity originally associated with the bacterial pellet dissociated", "setting": "[6]", "result": "Approximately 90%"}]}
{"molecule": "B1", "values": [{"measurement": "counts offered being bound by the group A streptococcus 64/14", "setting": "[1]; maximal binding, between pH 5 and 8, about 10^7 bacteria, 37 C, 15 min", "result": "approximately 60%"}, {"measurement": "amount bound by the bacteria, effect of divalent cations", "setting": "[7]", "result": "the same in the presence or absence of divalent cations"}]}
{"molecule": "B2", "values": [{"measurement": "plasminogen activating potential", "setting": "plasminogen; affinity purified protein", "result": "lacked any plasminogen activating potential"}, {"measurement": "plasminogen activator activity", "setting": "plasminogen; extracted (mutanolysin) preparation from strain 64/14", "result": "no plasminogen activator activity"}, {"measurement": "binding of 125I-labeled human plasmin on blot", "setting": "human plasmin", "result": "capable of binding to human plasmin"}, {"measurement": "binding of 125I-labeled human plasmin on blot", "setting": "human plasmin; listed as Mr ≈41,000 dalton protein", "result": "retained fractional plasmin binding activity"}]}
